Values of other authors, collected in patent publication US20080044356A1, “Assemblies of Oligomeric Amyloid Beta Protein and Uses Thereof” (Regents of the University of Minnesota, priority 2004, published 2008).
Where two headings read alike, the source gives them in different places.

Legend:
rats [1] = test system: rats
[2] = test system: Alzheimer's disease (AD) patients
rats [3] = test system: rats; remark: listed apart in the source
[4] = animals treated in utero (congenital hypothyroidism), versus controls
[5] = congenitally hypothyroid rats with replacement treatment

CC(C)Cc1ccc(C(C)C(=O)O)cc1 (stereo not shown) [ibuprofen]
effect on Aβ-induced ALCR performance decrements (rats [1]; after IH injection of pre-aggregated Aβ): mitigated these effects
ALCR Cognitive Effect (rats [1]; route PO): Normalized errors
ALCR Running Response Rate (rats [1]; route PO): No effect

AN-1792: beta amyloid peptide 1-42, used for active immunization
adverse reaction to active immunization ([2]; human, in vivo): risk of encephalitis
cognitive function ([2]; immunization, subset of AD patients): encouraging preliminary reports

CN1[C@@H]2CC[C@H]1C[C@@H](OC(=O)C(CO)c1ccccc1)C2 (stereo partly shown) [atropine]
switching errors (rats [1]; 1.0 mg/kg IP): increases switching errors significantly
ALCR Cognitive Effect (rats [1]; route IP): Increased errors
ALCR Running Response Rate (rats [1]; route IP): No effect
ALCR Running Response Rate (rats [1]; route IP, 1 mg/kg): Reduced

Cn1cc[nH]c1=S [methimzole, methimazole]
learning to criterion in the ALCR task (rats [1]; [4]): significantly slower learning to criterion
ALCR Cognitive Effect (rats [1]; route PO): Slow learning
ALCR Running Response Rate (rats [1]; route PO): No effect
motivation for food in the PR task (rats [3]; [4]): not different from that of controls
Direct test of Motivation (rats [3]; route PO, FOA, PR assessments): No effect

N[C@@H](Cc1cc(I)c(Oc2cc(I)c(O)c(I)c2)c(I)c1)C(=O)O [thyroxin, thyroxine]
learning to criterion and error rates in the ALCR task (rats [1]; [5]): normal learning to criterion and error rates
motivation for food in the PR task (rats [3]; [5]): performed equally well
